Values quoted from earlier work, collected in patent publication US11872245B2, “Antiseptic polymer and synthesis thereof” (TRIMPH IP PTY LIMITED, priority 2015, dated 2024).

Key:
IIb3 = IIb3 (Homo sapiens, UniProt P05106+P08514)
V3 = V3 (Homo sapiens, UniProt P05106+P06756)
V3, sequence (P06756 31-1048): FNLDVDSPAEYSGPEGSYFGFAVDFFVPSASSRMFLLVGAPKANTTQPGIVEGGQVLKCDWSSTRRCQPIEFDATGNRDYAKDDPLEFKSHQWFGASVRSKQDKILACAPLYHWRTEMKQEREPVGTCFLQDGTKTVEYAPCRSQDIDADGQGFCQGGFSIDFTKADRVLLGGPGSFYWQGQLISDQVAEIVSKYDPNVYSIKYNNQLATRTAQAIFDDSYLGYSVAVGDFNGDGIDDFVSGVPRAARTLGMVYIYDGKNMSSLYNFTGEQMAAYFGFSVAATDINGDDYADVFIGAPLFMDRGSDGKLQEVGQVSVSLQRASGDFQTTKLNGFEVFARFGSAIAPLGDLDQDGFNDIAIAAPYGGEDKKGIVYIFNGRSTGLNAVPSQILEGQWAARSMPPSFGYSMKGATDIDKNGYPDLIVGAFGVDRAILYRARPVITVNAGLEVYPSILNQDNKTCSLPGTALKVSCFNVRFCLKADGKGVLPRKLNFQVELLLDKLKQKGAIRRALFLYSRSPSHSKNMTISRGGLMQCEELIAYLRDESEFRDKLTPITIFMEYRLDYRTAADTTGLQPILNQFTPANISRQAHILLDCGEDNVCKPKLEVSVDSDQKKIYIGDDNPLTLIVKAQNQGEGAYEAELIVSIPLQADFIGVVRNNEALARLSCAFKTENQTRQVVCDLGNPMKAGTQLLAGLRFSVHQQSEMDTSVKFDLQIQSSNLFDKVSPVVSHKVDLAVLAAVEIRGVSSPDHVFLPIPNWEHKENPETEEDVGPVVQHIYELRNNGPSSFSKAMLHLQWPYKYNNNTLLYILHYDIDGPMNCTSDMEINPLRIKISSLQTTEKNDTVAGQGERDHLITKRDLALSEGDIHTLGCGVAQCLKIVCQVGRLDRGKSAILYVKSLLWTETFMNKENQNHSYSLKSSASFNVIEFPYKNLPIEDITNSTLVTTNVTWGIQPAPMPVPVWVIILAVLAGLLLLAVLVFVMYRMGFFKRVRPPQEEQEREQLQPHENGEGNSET
V3, sequence (P05106 27-788): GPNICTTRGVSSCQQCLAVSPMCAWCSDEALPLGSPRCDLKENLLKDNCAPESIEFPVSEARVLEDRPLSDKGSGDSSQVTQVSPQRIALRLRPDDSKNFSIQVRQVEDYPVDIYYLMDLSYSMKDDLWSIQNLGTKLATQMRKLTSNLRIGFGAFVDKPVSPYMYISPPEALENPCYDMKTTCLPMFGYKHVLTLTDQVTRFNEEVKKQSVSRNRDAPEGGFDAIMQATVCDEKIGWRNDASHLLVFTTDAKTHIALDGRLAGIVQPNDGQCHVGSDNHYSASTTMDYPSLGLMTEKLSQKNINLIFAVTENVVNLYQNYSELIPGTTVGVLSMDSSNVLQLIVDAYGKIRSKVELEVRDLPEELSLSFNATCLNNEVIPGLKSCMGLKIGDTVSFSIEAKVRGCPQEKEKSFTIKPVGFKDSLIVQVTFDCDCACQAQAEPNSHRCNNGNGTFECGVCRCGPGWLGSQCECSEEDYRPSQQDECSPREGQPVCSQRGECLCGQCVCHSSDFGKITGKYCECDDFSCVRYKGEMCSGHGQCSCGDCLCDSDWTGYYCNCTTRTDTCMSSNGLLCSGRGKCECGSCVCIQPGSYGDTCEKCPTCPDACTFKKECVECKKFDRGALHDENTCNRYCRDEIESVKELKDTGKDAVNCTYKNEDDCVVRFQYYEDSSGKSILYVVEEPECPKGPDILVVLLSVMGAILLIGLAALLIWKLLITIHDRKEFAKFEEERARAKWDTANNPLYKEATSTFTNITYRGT

IIb3, sequence (P08514 32-1039): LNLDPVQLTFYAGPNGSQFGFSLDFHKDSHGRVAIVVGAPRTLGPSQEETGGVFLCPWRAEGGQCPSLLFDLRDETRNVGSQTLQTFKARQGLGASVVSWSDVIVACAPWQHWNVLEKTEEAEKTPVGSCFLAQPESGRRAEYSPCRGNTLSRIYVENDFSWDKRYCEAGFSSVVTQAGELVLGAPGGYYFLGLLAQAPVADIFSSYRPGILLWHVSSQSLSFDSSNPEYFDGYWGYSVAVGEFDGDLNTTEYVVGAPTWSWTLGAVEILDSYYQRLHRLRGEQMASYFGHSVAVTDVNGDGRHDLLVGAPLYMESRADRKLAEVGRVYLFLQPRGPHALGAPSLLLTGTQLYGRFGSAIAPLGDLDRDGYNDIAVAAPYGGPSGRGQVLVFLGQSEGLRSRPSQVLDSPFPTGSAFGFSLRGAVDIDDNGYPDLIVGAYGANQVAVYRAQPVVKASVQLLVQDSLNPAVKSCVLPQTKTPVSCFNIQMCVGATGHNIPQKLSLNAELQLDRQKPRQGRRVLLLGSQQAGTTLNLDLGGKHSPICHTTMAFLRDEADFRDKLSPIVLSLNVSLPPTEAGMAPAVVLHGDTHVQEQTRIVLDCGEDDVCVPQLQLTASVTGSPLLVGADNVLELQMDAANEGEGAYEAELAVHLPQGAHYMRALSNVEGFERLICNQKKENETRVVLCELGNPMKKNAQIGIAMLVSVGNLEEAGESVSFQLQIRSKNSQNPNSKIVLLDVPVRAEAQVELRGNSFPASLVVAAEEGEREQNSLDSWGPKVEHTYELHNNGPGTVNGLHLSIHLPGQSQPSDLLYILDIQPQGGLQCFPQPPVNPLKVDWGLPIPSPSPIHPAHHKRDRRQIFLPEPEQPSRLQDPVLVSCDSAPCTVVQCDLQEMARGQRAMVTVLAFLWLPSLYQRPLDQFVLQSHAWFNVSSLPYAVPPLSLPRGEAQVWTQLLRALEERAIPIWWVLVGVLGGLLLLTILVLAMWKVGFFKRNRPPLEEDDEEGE
IIb3, sequence (P05106 27-788): as the sequence (P05106 27-788) above

For {GLY}{ARG}{GLY}{ASP}{SER} [GRGDS], the affinity (IIb3) is given as “intermediate affinity” and the affinity (V3) is given as “intermediate affinity”.
